In one assay the target is ROCK2 (Homo sapiens (Human), UniProt O75116). As to the kind of experiment: ROCK assay (Caliper LABCHIP peptide phosphorylation). The assay is classed as biochemical. Conditions: 5 μM ATP, 1.5 μM peptide substrate. Put shortly:
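Human ROCK2 reaction with 5 μM ATP and 1.5 μM FITC-labelled peptide substrate in 20 mM HEPES pH 7.5, 20 mM MgCl2, 4 mM DTT, DMSO <2%; stopped with EDTA. Phosphorylated and unphosphorylated peptide separated by microfluidic mobility shift; IC50 from dose-response curve fit.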

The subject of assay [1] is spontaneously hypertensive rat, renal hypertensive rat and deoxycortisone acetate salt hypertensive rat models. The note with it: cited from earlier work.
A further assay deals with Dahl salt-sensitive rats. The note with it: rat, in vivo; cited from earlier work.
The test system of assay [2] is neointimal formation in rats. Conditions: cited from earlier work.
For assay [3], the system named is IL-1 beta-induced coronary stenosis. Conditions: long term treatment; cited from earlier work.

Consider 13 compounds from patent US11447487B2, “Spiroheptanyl hydantoins as rock inhibitors” (BRISTOL-MYERS SQUIBB COMPANY, priority 2017, dated 2022).

Sequence of ROCK2 (O75116 whole entry, species assumed): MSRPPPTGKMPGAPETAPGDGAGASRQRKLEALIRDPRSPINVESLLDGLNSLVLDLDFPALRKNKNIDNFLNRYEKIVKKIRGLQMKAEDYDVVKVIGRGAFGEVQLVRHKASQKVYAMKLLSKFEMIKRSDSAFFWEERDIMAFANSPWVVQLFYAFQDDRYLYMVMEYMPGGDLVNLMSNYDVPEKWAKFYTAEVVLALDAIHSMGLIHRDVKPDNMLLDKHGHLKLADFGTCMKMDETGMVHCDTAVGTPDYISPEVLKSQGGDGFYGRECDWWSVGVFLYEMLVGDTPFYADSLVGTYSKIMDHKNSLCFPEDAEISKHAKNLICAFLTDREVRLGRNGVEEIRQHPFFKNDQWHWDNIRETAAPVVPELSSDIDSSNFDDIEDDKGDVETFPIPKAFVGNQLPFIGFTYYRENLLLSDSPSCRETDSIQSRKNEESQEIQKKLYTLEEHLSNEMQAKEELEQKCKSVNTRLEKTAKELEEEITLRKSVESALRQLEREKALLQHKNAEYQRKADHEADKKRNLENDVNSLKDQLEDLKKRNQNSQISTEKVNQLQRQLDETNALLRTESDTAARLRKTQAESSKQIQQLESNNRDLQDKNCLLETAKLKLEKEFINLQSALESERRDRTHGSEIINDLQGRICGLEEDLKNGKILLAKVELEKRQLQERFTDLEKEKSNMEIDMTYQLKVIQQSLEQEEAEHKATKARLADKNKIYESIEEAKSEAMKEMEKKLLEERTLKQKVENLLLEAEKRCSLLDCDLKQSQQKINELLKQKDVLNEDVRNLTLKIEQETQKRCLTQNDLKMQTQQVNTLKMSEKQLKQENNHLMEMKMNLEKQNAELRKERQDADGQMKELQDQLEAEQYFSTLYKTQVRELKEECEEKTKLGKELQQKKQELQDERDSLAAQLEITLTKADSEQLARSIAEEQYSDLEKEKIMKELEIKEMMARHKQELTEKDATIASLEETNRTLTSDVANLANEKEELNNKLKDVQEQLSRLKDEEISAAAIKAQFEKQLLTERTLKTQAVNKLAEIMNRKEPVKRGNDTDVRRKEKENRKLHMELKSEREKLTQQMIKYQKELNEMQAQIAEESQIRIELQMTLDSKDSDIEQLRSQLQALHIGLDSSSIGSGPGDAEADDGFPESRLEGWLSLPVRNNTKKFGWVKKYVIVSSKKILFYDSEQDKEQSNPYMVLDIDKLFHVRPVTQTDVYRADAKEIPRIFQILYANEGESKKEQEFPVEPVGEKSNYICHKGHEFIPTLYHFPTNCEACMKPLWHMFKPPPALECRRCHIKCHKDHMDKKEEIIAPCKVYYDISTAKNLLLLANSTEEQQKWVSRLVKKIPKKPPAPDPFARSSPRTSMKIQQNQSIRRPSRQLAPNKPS

In general, IC50 refers to the concentration needed to halve the response being measured. Read a low IC50 as greater potency in that assay. As to `C[C@H](C[C@@H]1NC(=O)N([C@H]2C[C@@]3(C[C@H](Oc4ncccc4C(N)=O)C3)C2)C1=O)C(F)(F)F` (stereo partly drawn) [Example 92, 2-(((αR)-6-((S)-2,5-dioxo-4-((R)-3,3,3-trifluoro-2-methylpropyl)imidazolidin-1-yl)spiro[3.3]heptan-2-yl)oxy)nicotinamide], at ROCK2, the midpoint of inhibition, the IC50, lay at 6 nM.

The compound `C[C@@H](C[C@@H]1NC(=O)N([C@H]2C[C@@]3(C[C@H](Oc4ncccc4C(N)=O)C3)C2)C1=O)C(F)(F)F` (stereo partly drawn) [Example 93, 2-(((αR)-6-((S)-2,5-dioxo-4-((S)-3,3,3-trifluoro-2-methylpropyl)imidazolidin-1-yl)spiro[3.3]heptan-2-yl)oxy)nicotinamide] had a half-maximal inhibitory concentration (IC50) at ROCK2 of 9 nM.

Take `CC(C)(CC1NC(=O)N([C@H]2C[C@@]3(C[C@H](Oc4ncccc4C(N)=O)C3)C2)C1=O)c1ccccc1` (some centres unmarked) [Example 94, 2-(((αR)-6-(2,5-dioxo-4-(2-phenyl-2-methylpropyl)imidazolidin-1-yl)spiro[3.3]heptan-2-yl)oxy)nicotinamide]: inhibition at ROCK2 was half-maximal at 27 nM (IC50).

In the case of `CC(C[C@@H]1NC(=O)N([C@H]2C[C@@]3(C[C@H](Oc4ncccc4C(N)=O)C3)C2)C1=O)c1ccccc1` (stereo partly drawn) [Example 95, 2-(((αR)-6-((S)-2,5-dioxo-4-(2-phenyl-propyl)imidazolidin-1-yl)spiro[3.3]heptan-2-yl)oxy)nicotinamide], 6 nM corresponded to half-maximal inhibition against ROCK2 (IC50).

In turn, `CC(C[C@H]1NC(=O)N([C@H]2C[C@@]3(C[C@H](Oc4ncccc4C(N)=O)C3)C2)C1=O)c1ccccc1` (stereo partly drawn) [Example 96, 2-(((αR)-6-((R)-2,5-dioxo-4-(2-phenyl-propyl)imidazolidin-1-yl)spiro[3.3]heptan-2-yl)oxy)nicotinamide] displayed an IC50 on ROCK2 of 264 nM.

At ROCK2, `NC(=O)c1cccnc1O[C@H]1CC2(C1)C[C@H](N1C(=O)N[C@@H](CC3CCC(NC(=O)OCc4ccccc4)CC3)C1=O)C2` (some centres unmarked) [Example 97] displayed an IC50 of 28 nM.

In turn, `NC(=O)c1cccnc1O[C@H]1C[C@]2(C1)C[C@H](N1C(=O)NC(CC3CCN(C(=O)OCc4ccccc4)CC3)C1=O)C2` (some centres unmarked) [Example 98, 2-(((αR)-6-(2,5-dioxo-4-(N-benzyloxycarbonyl-piperidin-4-ylmethyl)imidazolidin-1-yl)spiro[3.3]heptan-2-yl)oxy)nicotinamide] registered an IC50 on ROCK2 of 52 nM.

As for `NC(=O)c1cccnc1O[C@H]1C[C@]2(C1)C[C@H](N1C(=O)NC(C[C@@H]3C[C@H]4CC[C@@H](C3)N4C(=O)OCc3ccccc3)C1=O)C2` (some centres unmarked) [Example 99, benzyl 3-((1-((αR)-6-((3-carbamoylpyridin-2-yl)oxy)spiro[3.3]heptan-2-yl)-2,5-dioxoimidazolidin-4-yl)methyl)-8-azabicyclo[3.2.1] octane-8-carboxylate], 659 nM corresponded to half-maximal inhibition against ROCK2 (IC50).

Take `[H][C@]1(Oc2ncccc2C(N)=O)C[C@@]2(C[C@H](N3C(=O)N[C@@H](C[C@H]4CC[C@H](NC(=O)c5ccccc5)CC4)C3=O)C2)C1` (some centres unmarked) [Example 100]: half-maximal inhibition on ROCK2 (IC50) was put at 52 nM.

At ROCK2, `NC(=O)c1cccnc1O[C@H]1C[C@]2(C1)C[C@H](N1C(=O)NC(CC3CCN(C(=O)c4ccccc4)CC3)C1=O)C2` (some centres unmarked) [Example 101, 2-(((αR)-6-(2,5-dioxo-4-(N-benzoylpiperidin-4-ylmethyl)imidazolidin-1-yl)spiro[3.3]heptan-2-yl)oxy)nicotinamide] gave an IC50 of 146 nM.

In the case of `[H][C@]1(Oc2nc(OC)ccc2C(N)=O)C[C@]2(C[C@@H](N3C(=O)N[C@@H](CC(C)C(F)(F)F)C3=O)C2)C1` (some centres unmarked) [Example 102], the IC50 against ROCK2 is 5 nM.

For `C[C@@H](N)[C@H]1CC[C@H](C(=O)Nc2ccncc2)CC1` [Example Y-27632, Y-27632], the “blood pressure in control rats” value in assay [1] (control rats) is “only a minor effect on blood pressure”. Further, the blood pressure result in assay [1] (three rat models of hypertension) was “significantly decrease blood pressure”. Besides, the “ventricular hypertrophy, fibrosis and function” value in the assay on Dahl salt-sensitive rats is “improve ventricular hypertrophy, fibrosis and function”. The neointimal formation entry in assay [2] is listed as “inhibited neointimal formation”.

`O=S(=O)(c1cccc2cnccc12)N1CCCNCC1` [fasudil]: in assay [3], the coronary constrictive remodeling result is listed as “promote a regression of coronary constrictive remodeling” and the coronary stenosis entry is recorded as “progressively reduce coronary stenosis”.
